The results in this text go back to patent US8691849B2, “3-azabicyclo[3.1.0]hexyl derivatives as modulators of metabotropic glutamate receptors” (Janssen Pharmaceuticals, Inc., priority 2008, dated 2014).

For series [1], the target named is T1, human mGluR2 receptor (Homo sapiens, UniProt Q14416).
T1 construct: expressed in transfected cells; host or cells: CHO cells
Briefly: [35S]GTPγS binding assay (PAM assay), membranes from CHO cells transfected with human mGluR2. Type of series: biochemical. As to conditions: in presence of glutamate at predetermined EC25 concentration; averages of duplicate values of 11-concentration response curves; read-out: GTPγS - hR2 PAM pEC50 (converted). An excerpt: The compounds provided in the present invention are positive allosteric modulators of mGluR2. These compounds appear to potentiate glutamate responses by binding to an allosteric site other than the glutamate binding site. The response of mGluR2 to a concentration of glutamate is increased when compounds of Formula (I) are present. Compounds of Formula (I) are expected to have their effect substantially at mGluR2 by virtue of their ability to enhance the function of the receptor. The behaviour of positive allosteric modulators tested at mGluR2 using the [^35S]GTPγS binding assay method described below and which is suitable for the identification of such compounds, and more particularly the compounds according to Formula (I), are shown in Table 2.
The [^35S]GTPγS binding assay is a functional membrane-based assay used to study G-protein coupled receptor (GPCR) function whereby incorporation of a non-hydrolysable form of GTP, [^35S]GTPγS (guanosine 5′-triphosphate, labelled with […] ^35S), is measured. The G-protein α subunit catalyzes the exchange of guanosine 5′-diphosphate (GDP) by guanosine triphosphate (GTP) and on activation of the GPCR by an agonist, [^35S]GTPγS, becomes incorporated and cannot be cleaved to continue the exchange cycle (Harper (1998) Current Protocols in Pharmacology 2.6.1-10, John Wiley & Sons, Inc.). […] Here we describe the use of the [^35S]GTPγS binding assay using membranes from cells transfected with the human mGluR2 receptor and adapted from Schaffhauser et al ((2003) Molecular Pharmacology 4:798-810) for the detection of the positive allosteric modulation (PAM) properties of the compounds of this invention.
CHO-cells were cultured to pre-confluence and stimulated with 5 mM butyrate for 24 hours, prior to washing in PBS, and then collected by scraping in homogenisation buffer (50 mM Tris-HCl buffer, pH 7.4, 4° C.). […] Protein concentration was determined by the Bradford method (Bio-Rad, USA) with bovine serum albumin as standard.
Measurement of mGluR2 positive allosteric modulatory activity of test compounds in membranes containing human mGluR2 was performed using frozen membranes that were thawed and briefly homogenized prior to pre-incubation in 96-well microplates (15 μg/assay well, 30 minutes, 30° C.) in assay buffer (50 mM HEPES pH 7.4, 100 mM NaCl, 3 mM MgCl2, 50 μM GDP, 10 μg/ml saponin,) with increasing concentrations of positive allosteric modulator (from 0.3 nM to 50 μM) and either a minimal pre-determined concentration of glutamate (PAM assay), or no added glutamate. […] Filters were then air-dried, and 40 μl of liquid scintillation cocktail (Microscint-O) was added to each well, and membrane-bound [^35S]GTPγS was measured in a 96-well scintillation plate reader (Top-Count, Perkin-Elmer, USA). […]

T1 sequence (Q14416 19-872): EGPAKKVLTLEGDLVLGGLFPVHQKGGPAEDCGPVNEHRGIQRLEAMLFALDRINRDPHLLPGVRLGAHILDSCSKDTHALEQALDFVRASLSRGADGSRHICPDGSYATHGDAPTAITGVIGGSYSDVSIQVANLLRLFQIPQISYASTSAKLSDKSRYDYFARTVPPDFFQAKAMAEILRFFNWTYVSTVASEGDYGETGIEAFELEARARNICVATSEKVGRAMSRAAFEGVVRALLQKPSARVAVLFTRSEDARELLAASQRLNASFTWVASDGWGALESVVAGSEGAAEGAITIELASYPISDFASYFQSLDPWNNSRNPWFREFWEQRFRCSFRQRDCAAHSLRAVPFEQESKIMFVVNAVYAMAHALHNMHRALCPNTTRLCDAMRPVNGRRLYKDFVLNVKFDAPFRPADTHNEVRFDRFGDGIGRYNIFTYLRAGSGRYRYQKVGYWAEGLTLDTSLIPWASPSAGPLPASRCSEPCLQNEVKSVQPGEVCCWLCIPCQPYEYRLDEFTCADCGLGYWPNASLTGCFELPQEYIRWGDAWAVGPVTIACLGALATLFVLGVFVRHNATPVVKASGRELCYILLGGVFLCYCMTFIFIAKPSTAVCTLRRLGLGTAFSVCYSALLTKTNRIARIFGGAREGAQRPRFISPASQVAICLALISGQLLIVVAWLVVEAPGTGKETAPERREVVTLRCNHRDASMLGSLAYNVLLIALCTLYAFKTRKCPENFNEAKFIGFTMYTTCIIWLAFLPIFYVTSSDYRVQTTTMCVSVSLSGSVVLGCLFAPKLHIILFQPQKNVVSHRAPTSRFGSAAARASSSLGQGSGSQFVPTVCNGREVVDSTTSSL

One may read the melting point as the temperature, or range, at which the solid turns liquid. `O=c1c(Cl)c(N2CC3[C@H](C2)[C@H]3c2ccccc2)ccn1CC1CC1` (stereo partly drawn) [Compound E1, (2aα,3α,3aα)-3-Chloro-1-cyclopropylmethyl-4-(6-phenyl-3-aza-bicyclo[3.1.0]hex-3-yl)-1H-pyridin-2-one] came in with a melting point of 172.2 °C. For the same compound, the EC50 in series [1] is 275 nM.
Consider `CCCCn1ccc(N2C[C@@H]3[C@@H](COc4cc(Cl)ccc4Cl)[C@@H]3C2)c(Cl)c1=O` [Compound E2], for which the EC50 in series [1] is 123 nM.
Same read-out and setting: next, `CCCCn1ccc(N2C[C@@H]3[C@H](COc4cc(Cl)ccc4Cl)[C@@H]3C2)c(Cl)c1=O` [Compound E3]: 126 nM.
`CCCCn1ccc(N2C[C@@H]3[C@H](C2)[C@H]3c2ccccc2)c(Cl)c1=O` [Compound E4, (2aα,3α,3aα)-1-Butyl-3-chloro-4-(6-phenyl-3-aza-bicyclo[3.1.0]hex-3-yl)-1H-pyridin-2-one] gave a melting point of 185.9 °C. In addition, in series [1], the EC50 was 89.1 nM.
